Here are results for seven compounds from patent US9089572B2, “Inhibitors of p97” (California Institute of Technology, priority 2008, dated 2015).

The structures appear in SMILES notation. Where a SMILES comes first, the peptide text is derived from it. The star is where a group is joined. Cbz = O=C(OCc1ccccc1)*

One test has as its target wild type murine p97 (Mus musculus, UniProt Q01853). In words: In vitro ATP hydrolysis (malachite green ATPase assay), wild type murine p97. Particulars: 200 nM p97, 20 min preincubation at 23° C., malachite green; read-out: In vitro ATP Hydrolysis Activity IC50 WT-mP97. It counts as biochemical. The procedure:
(§1) Compounds were tested for their ability to inhibit the ATPase activity of purified wild type murine p97 and T532C-Cdc48, a mutant of yeast Cdc48 in which the residue analogous to cysteine 522, threonine 532, was converted to cysteine.

The target of the next test is T532C-Cdc48 (Saccharomyces cerevisiae, UniProt P25694, T532C). In words: In vitro ATP hydrolysis (malachite green ATPase assay), T532C-Cdc48. Type of test: biochemical, yeast. As to the method:
as §1
To determine whether cysteine 522 is necessary for inhibition of p97 by compound 2, a mutant of p97 was constructed in which cysteine 522 was converted to either alanine (C522A-mp97) or threonine (C522T-mp97). The IC50 values of compound 2 were measured the against various enzymes during a 20-minute preincubation (see Table 2). Mutation of cysteine 522 in p97 to either alanine or threonine decreased sensitivity to compound 2 by greater than 100-fold. On the other hand, yeast Cdc48, which normally is quite resistant to compound 2, became nearly 30-fold more sensitive to the compound upon introduction of a cysteine in place of threonine 532.

For the next test, the system named is HeLa. Kind of test: MTT cell growth assay, HeLa. It counts as cell-based. Particulars: Homo sapiens, 48 or 72 h, read-out: Cell line inhibition of growth GI50 HeLa. The procedure: (§2) To probe further the effect of compound 2 and related compounds 1, 3, 5, 6 and 7, various concentrations of these compounds were added to 13 different cell lines and incubated for 48 or 72 h. An MTT assay was then performed to evaluate cell growth and survival.
For orientation: Tetrazolium assays rely on reduction of a dye to a coloured formazan, in cell work by metabolically active cells.

The next test concerns MCF7. Kind of test: MTT cell growth assay, MCF7. Particulars: Homo sapiens, 48 or 72 h, read-out: Cell line inhibition of growth GI50 MCF7. Type of test: cell-based. The procedure:
as §2

Another test has as its system MDAMB-231. In words: MTT cell growth assay, MDAMB-231. Conditions: Homo sapiens, MDA-MB-231, 48 or 72 h, read-out: Cell line inhibition of growth GI50 MDAMB-231. It counts as cell-based. The procedure: as §2
Another test relates to RPMI8226. Kind of test: MTT cell growth assay, RPMI8226. Type of test: cell-based. Particulars: Homo sapiens, RPMI-8226, 48 or 72 h, read-out: Cell line inhibition of growth GI50 RPMI8226. As to the method:
as §2

For another test, the system named is RL. Kind of test: MTT cell growth assay, RL. Type of test: cell-based. Particulars: Homo sapiens, 48 or 72 h, read-out: Cell line inhibition of growth GI50 RL. The procedure:
as §2

In the next test the test system is Molt4. Kind of test: MTT cell growth assay, Molt4. Particulars: Homo sapiens, MOLT-4, 48 or 72 h, read-out: Cell line inhibition of growth GI50 Molt4. It counts as cell-based. As to the method: as §2
For a further test, the system named is CCRF-CEM. In words: MTT cell growth assay, CCRF-CEM. Particulars: Homo sapiens, 48 or 72 h, read-out: Cell line inhibition of growth GI50 CCRF-CEM. It counts as cell-based. As to the method:
as §2

In another test the test system is HTC116 WT. Kind of test: MTT cell growth assay, HTC116 WT. Type of test: cell-based. Particulars: 48 or 72 h, read-out: Cell line inhibition of growth GI50 HTC116 WT. The procedure: as §2
The next test concerns HCT116 p53−/−. In words: MTT cell growth assay, HCT116 p53−/−. Type of test: cell-based. Conditions: Homo sapiens, HCT-116, 48 or 72 h, read-out: Cell line inhibition of growth GI50 HCT116 p53−/−. As to the method: as §2
The next test has as its system LNCaP. In words: MTT cell growth assay, LNCaP. It counts as cell-based. Particulars: Homo sapiens, 48 or 72 h, read-out: Cell line inhibition of growth GI50 LNCaP. As to the method:
as §2

The next test relates to DU145. Kind of test: MTT cell growth assay, DU145. Conditions: Homo sapiens, DU-145, 48 or 72 h, read-out: Cell line inhibition of growth GI50 DU145. Type of test: cell-based. As to the method: as §2
The next test concerns PC3. Kind of test: MTT cell growth assay, PC3. It counts as cell-based. Particulars: Homo sapiens, PC-3, 48 or 72 h, read-out: Cell line inhibition of growth GI50 PC3. The procedure:
as §2

For test [1], the system named is HeLa cell line that stably expresses UbG76V-GFP. Kind of test: Accumulation of UbG76V-GFP in HeLa cells (fluorescence microscopy). It counts as cell-based. Conditions: fluorescence microscopy. The procedure:
As a control, the same cells were treated with the proteasome inhibitor MG132. In the latter set of experiments, a HeLa cell line that stably expresses UbG76V-GFP was transfected with either wild type (WT), D1 mutant (E305Q), D2 mutant (E578Q) or E305Q, E578Q double mutant (QQ) murine 97-pcDNA4.1 plasmid (0.05 μg/100 μL) in a 96-well plate. After 23 h, the intensity of UbG76V-GFP signal was measured on a Molecular Devices ImageXpress automated fluorescence microscope. […] The direct accumulation of Ub-G76V-GFP caused by compound 2 at 25 μM is 4-fold less than that caused by MG132 at 2 μM. This is likely due to the fact that only fully folded Ub-G76V-GFP should require p97 for degradation by the proteasome.
As a second test of whether compound 8 can inhibit p97 in vivo, it was evaluated whether it can cause accumulation of the UbG76V-GFP reporter. A HeLa cell line that stably expresses UbG76V-GFP was treated with compound 8 for 1 h at 37° C., and was then evaluated by fluorescence microscopy. As a control, the same cells were treated with the proteasome inhibitor MG132. […] The level of GFP fluorescence was quantified in cells treated with compound 8 at different doses and for different periods of time (FIG. 28).

A further test has as its system Ub-G76V-GFP/HeLa cells. In words: Degradation of pre-accumulated Ub-G76V-GFP (cycloheximide chase after MG132 washout). Particulars: for % K: relative to 0 μM. Type of test: cell-based. As to the method:
To evaluate this possibility, an assay was developed to determine the rate of degradation of pre-accumulated Ub-G76V-GFP molecules. […] Cells were then washed with PBS three times remove the MG132. Cells were then refreshed by adding DMEM containing cycloheximide (50 μg/mL; to block production of more Ub-G76V-GFP) and test compounds (0˜10 μM) were added into cells. Eight 96-well plates were prepared and one of the plates was imaged at 25, 50, 70, 100, 110, 125, 145, or 170 min after washing with PBS three times. After washing out MG132, degradation of pre-accumulated Ub-G76V-GFP appears to follow pseudo-first order reaction. Rate constant (K; 1/min) can be determined from the slope of plotting Ln (Fold Accumulation) versus Time (min) (see FIG. 17 and FIG. 18).
Ub-G76V-GFP/HeLa cells were treated with MG132 (2 μM) for 1 h and washed with PBS three times. DMEM containing cycloheximide (50 μg/mL) and compound 8 (0-10 μM) was added into cells. Eight 96-well plates were prepared and one of the plates was imaged at 25, 50, 70, 100, 110, 125, 145, or 170 min after washing with PBS three times.

The next test relates to MRC5-WT. In words: CellTiter-Glo growth inhibition, parental MRC5 cells. It counts as cell-based. Conditions: Homo sapiens, 48 h at 37° C., read-out: Cell line inhibition of growth GI50 MRC5-WT. (In general: Cellular ATP, detected with luciferase, serves as a proxy for viable cell number.)
The next test deals with MRC5-SV40. In words: CellTiter-Glo growth inhibition, MRC5 cells engineered to express SV40. It counts as cell-based.

For orientation: IC50 means the concentration that gives 50% inhibition.

Chain of T532C-Cdc48 (P25694 whole entry T532C): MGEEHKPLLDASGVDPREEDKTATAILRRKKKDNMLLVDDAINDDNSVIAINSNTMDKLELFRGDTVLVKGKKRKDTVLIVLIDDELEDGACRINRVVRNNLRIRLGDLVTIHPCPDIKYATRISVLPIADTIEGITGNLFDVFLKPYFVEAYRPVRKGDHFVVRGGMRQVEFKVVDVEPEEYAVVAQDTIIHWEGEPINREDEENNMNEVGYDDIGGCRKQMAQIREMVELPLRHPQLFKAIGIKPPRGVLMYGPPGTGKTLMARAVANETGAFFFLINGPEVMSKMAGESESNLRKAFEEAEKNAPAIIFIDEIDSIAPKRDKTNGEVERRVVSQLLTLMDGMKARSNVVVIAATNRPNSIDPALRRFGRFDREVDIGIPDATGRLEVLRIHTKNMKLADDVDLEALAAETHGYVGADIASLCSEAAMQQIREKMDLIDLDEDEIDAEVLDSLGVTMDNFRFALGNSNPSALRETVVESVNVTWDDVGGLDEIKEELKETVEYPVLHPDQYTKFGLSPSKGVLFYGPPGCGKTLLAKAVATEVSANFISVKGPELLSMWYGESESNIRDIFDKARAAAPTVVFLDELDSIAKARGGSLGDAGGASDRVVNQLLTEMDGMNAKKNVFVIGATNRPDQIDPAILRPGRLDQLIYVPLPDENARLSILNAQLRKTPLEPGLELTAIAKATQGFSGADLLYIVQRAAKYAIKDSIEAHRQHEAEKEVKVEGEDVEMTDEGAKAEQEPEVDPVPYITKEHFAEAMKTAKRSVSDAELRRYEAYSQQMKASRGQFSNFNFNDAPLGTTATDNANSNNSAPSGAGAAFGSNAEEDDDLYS
Chain of wild type murine p97 (Q01853 whole entry): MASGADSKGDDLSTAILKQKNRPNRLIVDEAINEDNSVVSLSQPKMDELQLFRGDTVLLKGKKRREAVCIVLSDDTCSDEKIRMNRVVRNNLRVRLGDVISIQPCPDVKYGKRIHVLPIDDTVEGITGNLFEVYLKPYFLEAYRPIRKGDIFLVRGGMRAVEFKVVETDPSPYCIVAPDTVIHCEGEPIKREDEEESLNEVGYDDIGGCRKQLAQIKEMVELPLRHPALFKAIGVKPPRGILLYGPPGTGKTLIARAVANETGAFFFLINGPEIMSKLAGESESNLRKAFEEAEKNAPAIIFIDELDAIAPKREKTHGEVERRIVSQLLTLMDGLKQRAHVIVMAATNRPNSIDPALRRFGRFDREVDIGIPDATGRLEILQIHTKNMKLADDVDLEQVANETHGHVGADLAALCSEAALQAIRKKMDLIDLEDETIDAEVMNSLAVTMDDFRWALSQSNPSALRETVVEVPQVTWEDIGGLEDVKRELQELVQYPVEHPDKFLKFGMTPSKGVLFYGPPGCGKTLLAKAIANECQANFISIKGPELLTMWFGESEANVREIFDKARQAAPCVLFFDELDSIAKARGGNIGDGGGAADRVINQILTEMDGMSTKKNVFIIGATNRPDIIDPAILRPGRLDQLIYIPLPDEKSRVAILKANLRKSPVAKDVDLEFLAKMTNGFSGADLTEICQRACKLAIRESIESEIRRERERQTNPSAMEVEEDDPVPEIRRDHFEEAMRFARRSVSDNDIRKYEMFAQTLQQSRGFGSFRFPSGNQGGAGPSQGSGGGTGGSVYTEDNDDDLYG

`C=CC(=O)N(C(=O)C=C)c1ncnc2c1c(-c1ccccc1)nn2C(C)(C)C` [Compound 3]: the IC50 at wild type murine p97 is 1.1 ± 0.7 µM; against T532C-Cdc48, 26 ± 6 µM. Besides, the GI50 in the test with HeLa was determined as 5.3 ± 2.5 µM; with MCF7, 6.6 ± 2.2 µM; with MDAMB-231, 24 ± 10 µM; with RPMI8226, 1.2 ± 0.6 µM; in the test with RL, 5 ± 2 µM; in the test with Molt4, 2.7 ± 0.8 µM. The GI50 came out at 7.2 ± 4.3 µM in the test on CCRF-CEM; 5.1 ± 2 µM in the test with HTC116 WT; 4 ± 0.9 µM in the test with HCT116 p53−/−; 4.6 ± 1.1 µM with LNCaP; 8.2 ± 2.4 µM in the test with DU145; 3.3 ± 0.9 µM with PC3.
Take `CC(C)(C)n1nc(-c2ccccc2)c2c(NC(=O)CCl)ncnc21` [Compound 4]: the IC50 on wild type murine p97 stood at 4.5 ± 3.5 µM; against T532C-Cdc48, 35 ± 8 µM. Further, the GI50 was determined as 19 ± 6 µM with HTC116 WT; 20 ± 5 µM with HCT116 p53−/−; 23 ± 4 µM in the test with LNCaP; 40 ± 10 µM in the test on DU145; 6.3 ± 0.6 µM in the test on PC3.
Consider `CC(C)(C)n1nc(-c2ccc3ccccc3c2)c2c(N)ncnc21` [Compound 5], for which the IC50 on wild type murine p97 was more than 100 µM. The GI50 in the test on HeLa was determined as 1 ± 0.3 µM; with MCF7 it was 2.3 ± 0.4 µM; in the test on MDAMB-231, 10 ± 1.8 µM; in the test with RPMI8226 it was 9.8 ± 1.8 µM; in the test on RL, 0.7 ± 0.2 µM; with Molt4, 0.6 ± 0.2 µM. For the same compound, the GI50 amounted to 3.9 ± 1.3 µM in the test on CCRF-CEM; 4.3 ± 1.8 µM with HTC116 WT; 12 ± 3 µM in the test on HCT116 p53−/−; 7.6 ± 1.7 µM in the test with LNCaP; 3.5 ± 0.6 µM with DU145; 5.9 ± 0.5 µM in the test on PC3.
Turning to `C=CC(=O)Nc1ncnc2c1c(-c1ccc3ccccc3c1)nn2C(C)(C)C` [Compound 6], the IC50 worked out at 3 ± 1 µM at wild type murine p97 and 24 ± 7 µM against T532C-Cdc48. Moreover, the GI50 in the test on HeLa was 1.2 ± 0.2 µM; in the test with MCF7 it was 1.9 ± 0.4 µM; in the test with MDAMB-231, 5.9 ± 2.6 µM; in the test on RPMI8226, 1.2 ± 0.3 µM; in the test on RL it was 1.3 ± 0.4 µM; in the test with Molt4 it was 0.7 ± 0.1 µM. For the same compound, the GI50 with CCRF-CEM is 1.3 ± 0.4 µM; in the test with HTC116 WT, 2.8 ± 1.6 µM; in the test on HCT116 p53−/−, 2.4 ± 1 µM; with LNCaP, 2.5 ± 0.7 µM; with DU145 it was 2.3 ± 0.7 µM; in the test with PC3, 0.3 ± 0.23 µM.
Consider `C=CC(=O)N(C(=O)C=C)c1ncnc2c1c(-c1ccc3ccccc3c1)nn2C(C)(C)C` [Compound 7], for which the IC50 came to 1.3 ± 0.7 µM at wild type murine p97 and 22 ± 11 µM against T532C-Cdc48. Moreover, the GI50 with HeLa was 1.8 ± 0.6 µM; in the test with MCF7, 3.6 ± 1 µM; in the test on MDAMB-231, 21 ± 11 µM; in the test on RPMI8226 it was 3.4 ± 1.7 µM; with RL, 1.4 ± 0.7 µM; in the test with Molt4, 1.2 ± 0.5 µM. The GI50 with CCRF-CEM came to 2.4 ± 1.1 µM; with HTC116 WT, 5.5 ± 1.4 µM; in the test with HCT116 p53−/−, 13 ± 4 µM; in the test on LNCaP it was 11 ± 4 µM; in the test on DU145, 4.9 ± 0.6 µM; in the test on PC3, 6.2 ± 1.2 µM.
On to `CC(C)C[C@@H](C=O)NC(=O)[C@H](CC(C)C)NC(=O)[C@H](CC(C)C)NC(=O)OCc1ccccc1` [MG132, reference compound] (Cbz-Leu-Leu-Leu-aldehyde), for which the entries for the “accumulation of UbG76V-GFP” value in test [1] (1 h at 37° C.) and in [1] (4 hours at 37° C.) were “caused detectable accumulation of UbG76V-GFP” and “caused accumulation of UbG76V-GFP”, respectively. The “K, rate constant of Ub-G76V-GFP degradation” value in the test with Ub-G76V-GFP/HeLa cells (0.01 μM) is 0.0336 min⁻¹; with Ub-G76V-GFP/HeLa cells (0.04 μM), 0.0322 min⁻¹; in the test on Ub-G76V-GFP/HeLa cells (0.16 μM), 0.0260 min⁻¹; with Ub-G76V-GFP/HeLa cells (0.63 μM), 0.0095 min⁻¹; in the test with Ub-G76V-GFP/HeLa cells (2.5 μM), 0.0005 min⁻¹; with Ub-G76V-GFP/HeLa cells (10 μM), 0.0009 min⁻¹. Further, the “% K” value in the test with Ub-G76V-GFP/HeLa cells (0.01 μM) was 88%; with Ub-G76V-GFP/HeLa cells (0.04 μM), 84%; in the test on Ub-G76V-GFP/HeLa cells (0.16 μM) it was 68%; in the test on Ub-G76V-GFP/HeLa cells (0.63 μM), 25%; with Ub-G76V-GFP/HeLa cells (2.5 μM), 1%; in the test with Ub-G76V-GFP/HeLa cells (10 μM), 2%. Also, the IC50 with Ub-G76V-GFP/HeLa cells (Homo sapiens, HeLa, 1 h, read-out: IC50 on the decay of Ub-G76V-GFP) was determined as 0.24 ± 0.04 µM.
Regarding `CC(C)C[C@H](NC(=O)[C@H](Cc1ccccc1)NC(=O)c1cnccn1)B(O)O` [Velcade, reference compound], the GI50 in the test on MRC5-WT worked out at 0.2 ± 0.07 µM; in the test with MRC5-SV40 (Homo sapiens, MRC5, 48 h at 37° C., CellTiter-Glo, read-out: Cell line inhibition of growth GI50 MRC5-SV40) it was 0.1 ± 0.01 µM. Also, the “greater sensitivity of SV40-transformed cells than WT cell line” value with MRC5-SV40 (MRC5-SV40 vs MRC5-WT GI50) is 2 fold.
